Here are results for 4 compounds from ChEMBL document CHEMBL1138695, “Synthesis of stavudine amino acid ester prodrugs with broad-spectrum chemotherapeutic properties for the effective treatment of HIV/AIDS” (Bioorg Med Chem Lett, 2004).

Data set [1] relates to Escherichia coli. The data set can be described thus: Antibacterial activity against Escherichia coli NCTC 10418. It counts as functional.
In data set [2] the test system is Pseudomonas aeruginosa. Put plainly: Antibacterial activity against Pseudomonas aeruginosa. It counts as functional.
The test system of data set [3] is Vibrio parahaemolyticus. The data set can be described thus: Antibacterial activity against Vibrio parahaemolyticus. Format: functional.
Data set [4] has as its system Salmonella typhimurium. Put plainly: Antibacterial activity against Salmonella Typhimurium. Format: functional, Salmonella enterica subsp. enterica serovar Typhimurium. To be noted: Salmonella enterica.
For data set [5], the system named is Salmonella enteritidis. The data set can be described thus: Antibacterial activity against Salmonella enteritidis. It counts as functional, Salmonella enterica subsp. enterica serovar Enteritidis. To be noted: Salmonella enterica.
The subject of data set [6] is Morganella morganii. Put plainly: Antibacterial activity against Morganella morganii. Format: functional.
The test system of data set [7] is Vibrio cholerae. Put plainly: Antibacterial activity against Vibrio cholerae 0139. Format: functional.
Data set [8] concerns Proteus mirabilis. Put plainly: Antibacterial activity against Proteus mirabilis. It counts as functional.
The subject of data set [9] is Shigella boydii. Put plainly: Antibacterial activity against Shigella boydii. It counts as functional.
Data set [10] deals with Klebsiella pneumoniae. Put plainly: Antibacterial activity against Klebsiella ozaenae. Format: functional. To be noted: subsp. ozaenae.
For data set [11], the system named is Vibrio fluvialis. The data set can be described thus: Antibacterial activity against Vibrio fluvialis. Format: functional.
Data set [12] deals with Edwardsiella tarda. Put plainly: Antibacterial activity against Edwardsiella tarda. It counts as functional.
The nature of data set [13]: Selectivity index expressed as the ratio of CC50 to EC50. It counts as functional.
Data set [14] concerns Citrobacter freundii. The data set can be described thus: Antibacterial activity against Citrobacter ferundii. Format: functional.
Data set [15] has as its system Mycobacterium tuberculosis. Put plainly: Antimycobacterial activity against Mycobacterium tuberculosis strain H37Rv. Also on record: concentration or dose not given beside the values. Format: functional.
Data set [16] concerns Enterobacter. The data set can be described thus: Antibacterial activity against Enterobacter. Format: functional.
The subject of data set [17] is Vibrio mimicus. Put plainly: Antibacterial activity against Vibrio mimicus. Format: functional.
Data set [18] is described as follows: In vitro hydrolysis in human plasma. It counts as ADME, cell-free.
Data set [19] deals with Klebsiella pneumoniae. The data set can be described thus: Antibacterial activity against Klebsiella pneumoniae. It counts as functional.
The test system of data set [20] is Priestia megaterium. Put plainly: Antibacterial activity against Bacillus megatherium. It counts as functional.
The subject of data set [21] is Staphylococcus aureus. The data set can be described thus: Antibacterial activity against Staphylococcus aureus. Format: functional.
Data set [22] deals with Vibrio cholerae. The data set can be described thus: Antibacterial activity against Vibrio cholerae 01. Format: functional.
Data set [23] has as its system Shigella sonnei. Put plainly: Antibacterial activity against Shigella sonnei. It counts as functional.
For data set [24], the system named is CCRF-CEM. The data set can be described thus: Cytotoxic concentration of compound required to reduce the viability of mock infected CEM cells by 50%. It counts as functional. Particulars: Homo sapiens.
Data set [25] concerns Plesiomonas shigelloides. Put plainly: Antibacterial activity against Plesiomonas shigelloides. Format: functional.
For data set [26], the system named is Proteus vulgaris. Put plainly: Antibacterial activity against Proteus vulgaris. Format: functional.
Data set [27] deals with CCRF-CEM. Put plainly: Effective concentration of compound achieving 50% protection in CEM cell lines against the cytopathic effect of HIV-1. Particulars: Homo sapiens. Format: functional, cell-based.
The test system of data set [28] is Salmonella paratyphi. The data set can be described thus: Antibacterial activity against Salmonella paratyphi A. Format: functional, Salmonella enterica subsp. enterica serovar Paratyphi A. To be noted: Salmonella enterica.
In data set [29] the test system is Salmonella typhi. Put plainly: Antibacterial activity against […] Salmonella typhi. Particulars: Salmonella enterica. Format: functional, Salmonella enterica subsp. enterica serovar Typhi.

≈ marks a conversion by molar mass, not a printed value.

In general, MIC refers to the smallest concentration in the dilution series that meets the test's criterion for growth inhibition. By Inhibition is commonly meant the share of the control response that was lost under treatment. A word on the half-life: it is how long it takes for the measured level to halve. As usually defined, the CC50 is the concentration at which the toxic effect on the cells reaches its halfway point. By EC50 is commonly meant the concentration that produces a half-maximal response. With `Cc1cn(C2C=CC(COC(=O)CNC(=O)c3ccncn3)O2)c(=O)[nH]c1=O` (centres undefined), the MIC in data set [1] turned out to be 1250 mg/L (≈ 3230 µM); in [2] it was 1250 mg/L (≈ 3230 µM); in data set [3], 1250 mg/L (≈ 3230 µM); in data set [4] it was 1250 mg/L (≈ 3230 µM); in data set [5] it was 1250 mg/L (≈ 3230 µM); in [6], 312 mg/L (≈ 807 µM). Further, the MIC in [7] is 1250 mg/L (≈ 3230 µM); in [8], 1250 mg/L (≈ 3230 µM); in [9] it was 312 mg/L (≈ 807 µM); in data set [10], 1250 mg/L (≈ 3230 µM); in [11] it was 1250 mg/L (≈ 3230 µM); in [12] it was 1250 mg/L (≈ 3230 µM). The MIC amounted to 1250 mg/L (≈ 3230 µM) in data set [14]; 39.1 mg/L (≈ 101 µM) in [16]; 78.1 mg/L (≈ 202 µM) in [17]; 1250 mg/L (≈ 3230 µM) in [19]; 39.1 mg/L (≈ 101 µM) in data set [20]; 1250 mg/L (≈ 3230 µM) in data set [21]. For the same compound, the MIC is 1250 mg/L (≈ 3230 µM) in data set [22], 312 mg/L (≈ 807 µM) in [23], 312 mg/L (≈ 807 µM) in [25] and 1250 mg/L (≈ 3230 µM) in [26]. Further, the Selectivity index in [13] was determined as 1090. The compound further came in with an Inhibition in [15] of 0%. Besides, the half-life in data set [18] stood at 1 h. Half-maximal cytotoxicity in data set [24] (CC50) was put at 567 µM. In data set [27], the EC50 is 0.52 µM.
On to `Cc1cn(C2C=CC(COC(=O)CN(C)C)O2)c(=O)[nH]c1=O` (centres undefined), for which the Selectivity index in data set [13] was found to be 1330. This compound also yielded a half-life in data set [18] of 0.5 h. Besides, the midpoint of cytotoxicity in data set [24], the CC50, lay at 456 µM. In [27], this compound gave an EC50 of 0.343 µM.
For the compound `O=C(O)c1cn(C2CC2)c2cc(N3CCNCC3)c(F)cc2c1=O` [CIPROFLOXACIN], the MIC in data set [1] was 0.019 mg/L (≈ 0.0573 µM); in data set [2], 0.0381 mg/L (≈ 0.115 µM); in data set [3] it was 0.0095 mg/L (≈ 0.0287 µM); in data set [4], 0.0095 mg/L (≈ 0.0287 µM); in data set [5] it was 0.0095 mg/L (≈ 0.0287 µM); in data set [6], 0.0095 mg/L (≈ 0.0287 µM). In addition, the MIC in data set [7] amounted to 0.0095 mg/L (≈ 0.0287 µM); in data set [8], 0.0095 mg/L (≈ 0.0287 µM); in [9], 0.0095 mg/L (≈ 0.0287 µM); in data set [10], 0.0381 mg/L (≈ 0.115 µM); in [28] it was 0.019 mg/L (≈ 0.0573 µM); in data set [11] it was 0.0095 mg/L (≈ 0.0287 µM). For the same compound, the MIC amounted to 0.0095 mg/L (≈ 0.0287 µM) in [12]; 0.019 mg/L (≈ 0.0573 µM) in [29]; 0.0095 mg/L (≈ 0.0287 µM) in data set [14]; 0.019 mg/L (≈ 0.0573 µM) in [16]; 0.0095 mg/L (≈ 0.0287 µM) in [17]; 0.0095 mg/L (≈ 0.0287 µM) in data set [19]. Moreover, the MIC came to 0.0095 mg/L (≈ 0.0287 µM) in [20]; 0.0095 mg/L (≈ 0.0287 µM) in data set [21]; 0.0095 mg/L (≈ 0.0287 µM) in data set [22]; 0.0095 mg/L (≈ 0.0287 µM) in data set [23]; 0.019 mg/L (≈ 0.0573 µM) in data set [25]; 0.019 mg/L (≈ 0.0573 µM) in data set [26].
As to `Cc1cn(C2C=CC(COC(=O)CNNC(=O)c3ccncc3)O2)c(=O)[nH]c1=O` (centres undefined), the MIC in [1] came to 156 mg/L (≈ 389 µM); in [2], 1250 mg/L (≈ 3110 µM); in data set [3], 1250 mg/L (≈ 3110 µM); in data set [4], 1250 mg/L (≈ 3110 µM); in data set [5] it was 4.88 mg/L (≈ 12.2 µM); in data set [6], 156 mg/L (≈ 389 µM). The MIC in data set [7] came to 156 mg/L (≈ 389 µM); in [8], 2.44 mg/L (≈ 6.08 µM); in data set [9] it was 4.88 mg/L (≈ 12.2 µM); in [10], 9.76 mg/L (≈ 24.3 µM); in data set [28], 9.77 mg/L (≈ 24.3 µM); in data set [11], 1250 mg/L (≈ 3110 µM). In addition, the minimal inhibitory concentration (MIC) in data set [12] was 156 mg/L (≈ 389 µM); in [29] it was 156 mg/L (≈ 389 µM); in data set [14] it was 1250 mg/L (≈ 3110 µM); in data set [16], 312 mg/L (≈ 779 µM); in data set [17] it was 4.88 mg/L (≈ 12.2 µM); in data set [19] it was 1250 mg/L (≈ 3110 µM). In addition, the MIC in [20] came out at 2.44 mg/L (≈ 6.08 µM); in [21], 156 mg/L (≈ 389 µM); in data set [22], 1250 mg/L (≈ 3110 µM); in data set [23], 156 mg/L (≈ 389 µM); in data set [25] it was 312 mg/L (≈ 779 µM); in data set [26], 312 mg/L (≈ 779 µM). Besides, the Selectivity index in data set [13] is above 497. Further, in data set [15], the Inhibition is recorded as 90%. This compound came in with a half-life in data set [18] of 1 h. This compound also came in with a CC50 in data set [24] above 200 µM. Further, the EC50 in [27] was found to be 0.402 µM.
